The values below come from patent US20120064008A1, “COMPOSITIONS FOR THE TREATMENT OF METASTATIC CANCER AND METHODS OF USE THEREOF” (priority 2009, published 2012).

The structures appear in SMILES notation. Where two headings read alike, the source gives them in different places.

Data set [1] relates to multidrug resistant MES-SA/Dx5 human uterine sarcoma cells. As to the kind of experiment: Cell viability, MES-SA/Dx5. In kind it is cell-based. To be noted: read-out: ED50 MES-SA/Dx5. The source says:
(§1) Benzimidazoles retain their anti-tumor activity in these paclitaxel-resistant cells, with higher potency when compared to the parental cells (see Table 4). Cells resistant to microtubule-stabilizing drugs such as the taxanes are more susceptible to microtubule-disrupting agents. To confirm this, human uterine sarcoma MES-SA/Dx5 cells, which are cross-resistant to various chemotherapeutic agents, including the microtubule-disrupting agents vincristine and colchicine, were used.

The test system of data set [2] is paclitaxel-resistant DU145-TR prostate cancer cells. Kind of data set: Cyquant cell viability assay, DU145-TR. In kind it is cell-based, human. To be noted: Homo sapiens, read-out: ED50 DU145-TR. How it is done: (§2) The cytotoxic effects of paclitaxel, fenbendazole, and albendazole were compared in paclitaxel-resistant PC3-TR and DU145-TR prostate cancer cells with their paclitaxel-sensitive counterparts, PC3 and DU145 cells. Cells were treated for 72 hours with vehicle, paclitaxel, fenbendazole or albendazole in various doses. Cell viability was measured using Cyquant assay, and percent control was calculated by dividing the fluorescent reading from drug-treated cells with those from vehicle-treated cells, indicating percentage of cell survival.

Data set [3] deals with paclitaxel-resistant PC3-TR prostate cancer cells. As to the kind of experiment: Cyquant cell viability assay, PC3-TR. The data set is classed as cell-based, human. To be noted: Homo sapiens, read-out: ED50 PC3-TR. The method, then: as §2
Data set [4] relates to AT6.1 cells. Kind of data set: Normalized mitotic index (histone H3 phospho-Serine-28), AT6.1. The data set is classed as cell-based. To be noted: Rattus norvegicus, normalized against vehicle-treated cells. The source says:
(§3) The mitotic index for each agent was normalized against those obtained from vehicle-treated cells, and compared with the activity of paclitaxel, a known inducer of mitotic arrest.

Data set [5] deals with PC3 human prostate cancer cells. As to the kind of experiment: Cyquant cell viability assay, PC3. In kind it is cell-based. To be noted: read-out: ED50 PC3. The method, then:
as §2

For data set [6], the system named is PC3 cells. Kind of data set: Normalized mitotic index, PC3. In kind it is cell-based, human. To be noted: 1 μM.
The test system of data set [7] is PC3MLN4 cells. As to the kind of experiment: Annexin V/7-AAD apoptosis by flow cytometry, PC3MLN4. To be noted: for apoptotic cells in PC3MLN4: 1 μM, combination carrier. The method, then:
(§4) Annexin V/7-amino-actinomycin D labeling was done according to the manufacturer's instructions (BD Pharmingen, 559763) and samples were analyzed by flow cytometry. Briefly, the cells were treated for 72 hours with either vehicle or 1 μM benzimidazole drugs, solubilized in the combination carrier. Cells were trypsinized and washed with PBS before resuspending in assay binding buffer. Annexin V and 7-amino-actinomycin labeling was performed at room temperature for 15 minutes before analysis by flow cytometry (BD FACScan). Cells positively stained for annexin V in the lower right quadrant and upper right quadrant indicate early and late apoptosis, respectively.
All benzimidazole drugs were solubilized in the combination carrier. After 72 hours, the cells were analyzed by annexin V/7-AAD staining. Cells positively stained for annexin V in the lower right quadrant and upper right quadrant indicate early and late apoptosis, respectively.
A general note: A flow cytometer gives signals particle by particle.

Data set [8] relates to DU145-TR cells. As to the kind of experiment: % apoptotic cells, DU145-TR. In kind it is cell-based, human. To be noted: 1 μM.
Data set [9] has as its system PC3-TR cells. As to the kind of experiment: Normalized mitotic index, PC3-TR. In kind it is cell-based, human. To be noted: 1 μM.
Data set [10] relates to AT6.1 Dunning rat prostate carcinoma. Kind of data set: Tumor burden by blood Gaussia luciferase assay in AT6.1 model. To be noted: 100 mg/kg; until day 22; FIG. 9. In kind it is in vivo, nu/nu mice. The source says:
Similar to the survival model, treatment was not begun until day 5 when micrometastases were confirmed growing in the lung. For this approach, the AT6.1 cells were engineered to express secreted Gaussia luciferase enzyme. Using measurement of luciferase activity from the peripheral blood as an indicator of overall tumor burden, a significant reduction of tumor burden in the lungs of benzimidazole-treated animals when compared to vehicle-treated mice was observed. After 22 days, the mice were sacrificed and the lungs examined for viable tumor colonies.
Blood Gaussia luciferase assay was performed as described in the literature. Briefly, 10-20 μL peripheral blood was collected from the animals once a week via the retro-orbital vein. Secreted GAR luciferase activity was measured using a luminometer by adding 100 μL of 100 μM coelentrazine (Prolume, Nanolight, #303) to 5 μL blood and 2 μL of 20 mM EDTA. Relative luciferase reading from the blood collected represents the tumor burden in each animal. The reading was performed with blood collected at day 19 post inoculation when all mice were still alive.

The nature of data set [11]: Combination with paclitaxel, Cyquant cell growth inhibition, CompuSyn median-dose effect analysis. In kind it is cell-based. To be noted: alone or in combination. How it is done: Cell growth inhibition assays were performed using Cyquant reagent as described above. Drug interactions were quantitated by median-dose effect analysis and combination index values as well as dose reduction index were derived using CompuSyn software (ComboSyn, Inc.), as described previously in the literature. CI values of <1, =1, and >1 indicate synergism, additivity and antagonism between the drugs, respectively.
All benzimidazole drugs were prepared using the combination carrier and diluted with culture medium prior to treatment.

In data set [12] the test system is PC3M cells. Kind of data set: Annexin V/7-AAD apoptosis by flow cytometry, PC3M. To be noted: 1 μM, 72 hours, combination carrier. In kind it is cell-based, human. How it is done:
All benzimidazole drugs were solubilized in the combination carrier. After 72 hours, the cells were analyzed by annexin V/7-AAD staining.
as §4

Data set [13] has as its system DU145-TR cells. As to the kind of experiment: Normalized mitotic index, DU145-TR. The data set is classed as cell-based, human. To be noted: 1 μM.
For data set [14], the system named is PC-3M cells. As to the kind of experiment: Normalized mitotic index (histone H3 phospho-Serine-28), PC-3M. To be noted: Homo sapiens. The data set is classed as cell-based.
Excerpt: as §3

Data set [15] deals with PC3 cells. As to the kind of experiment: % apoptotic cells, PC3. To be noted: 1 μM. In kind it is cell-based, human.
Data set [16] deals with MES-SA human uterine sarcoma cells. As to the kind of experiment: Cell viability, MES-SA. In kind it is cell-based. To be noted: read-out: ED50 MES-SA.
Excerpt: as §1

Data set [17] has as its system PC3-TR cells. Kind of data set: % apoptotic cells, PC3-TR. The data set is classed as cell-based, human. To be noted: 1 μM.
For data set [18], the system named is DU145 cells. As to the kind of experiment: % apoptotic cells, DU145. In kind it is cell-based, human. To be noted: 1 μM.

Consider `CCCSc1ccc2nc(NC(=O)OC)[nH]c2c1` [Albendazole, albendazole], for which the EC50 in data set [1] was found to be 840 nM; in [2] (72 h), 1080 nM; in data set [3] (72 h), 800 nM; in data set [5] (72 h) it was 4860 nM; in [16], 1480 nM. Besides, the fold induction at 1 µM in [4] (read-out: Normalized mitotic index AT6.1, at 1 μM) is over 1; in data set [14] (read-out: Normalized mitotic index PC-3M, at 1 μM, normalized against vehicle-treated cells), over 1. Moreover, in data set [6], the “Normalized mitotic index (6 hours) PC3” value turned out to be 1.27. In addition, the “apoptotic cells in PC3MLN4” value in [7] (72 hours) stood at 29.7%. Also, the “cytotoxic activity via apoptosis in highly metastatic prostate cancer cells” value in data set [7] (72 hours, annexin V) is given as “induction of apoptosis”. Besides, in data set [8], the “% Apoptotic cells (72 hours) DU145-TR” value amounted to 55.8%. Moreover, the “Normalized mitotic index (6 hours) PC3-TR” value in [9] was determined as 1.56. The “tumor burden compared to the control” value in data set [10] is “significant reduction in tumor burden”. Moreover, in data set [11] (Fa 0.60), the “Dose ABZ” value was 5.249 µM. Further, in [12], the “apoptotic cells in PC3M” value worked out at 22%. In addition, the “Normalized mitotic index (6 hours) DU145-TR” value in data set [13] is reported as 1.13. Further, the “% Apoptotic cells (72 hours) PC3” value in data set [15] came out at 13.2%. Also, the “% Apoptotic cells (72 hours) PC3-TR” value in data set [17] is 25.8%. Further, in data set [18], the “% Apoptotic cells (72 hours) DU145” value is 27%.
Consider `COC(=O)Nc1nc2ccc(Sc3ccccc3)cc2[nH]1` [Fenbendazole, fenbendazole], for which the EC50 in data set [1] is 1130 nM; in data set [2] (72 hours, paclitaxel-resistant), 4210 nM; in data set [3] (72 hours, paclitaxel-resistant), 320 nM; in [5] (72 hours), 1570 nM; in data set [11] (Fa 0.50, read-out: Dose FBZ) it was 6210 nM; in data set [16], 3040 nM. Besides, the fold induction at 1 µM in data set [4] (at 1 μM, read-out: Normalized mitotic index AT6.1) is over 1; in data set [14] (at 1 μM, normalized against vehicle-treated cells, read-out: Normalized mitotic index PC-3M), over 1. In data set [6], the “Normalized mitotic index (6 hours) PC3” value worked out at 1.26. Besides, in data set [7], the “cytotoxic activity via apoptosis in highly metastatic prostate cancer cells” value was “induction of apoptosis”. Further, the “apoptotic cells in PC3MLN4” value in [7] (72 hours) was found to be 31.4%. Also, in data set [8], the “% Apoptotic cells (72 hours) DU145-TR” value worked out at 43.3%. For the same compound, in [9], the “Normalized mitotic index (6 hours) PC3-TR” value is given as 1.48. Moreover, the “tumor burden compared to the control” value in data set [10] is on record as “significant reduction in tumor burden”. In [12], the “apoptotic cells in PC3M” value is listed as 22.8%. Besides, the “Normalized mitotic index (6 hours) DU145-TR” value in [13] is given as 1.18. Moreover, the “% Apoptotic cells (72 hours) PC3” value in data set [15] is recorded as 16.1%. Besides, the “% Apoptotic cells (72 hours) PC3-TR” value in [17] was 34.4%. Besides, in data set [18], the “% Apoptotic cells (72 hours) DU145” value is reported as 26%.
